# According to patent publication US5599966A, “Substituted ethanolamine esters” (BYK Nederland BV, priority 1992, dated 1997):
# Structures can show the parent of a compound that is named as a salt.
# Test system: guinea pig trachea
# Assay: relaxing action on guinea pig trachea contracted beforehand with methacholine (in vitro, organ bath)
# Format: cell-based
# Details: Cavia porcellus, read-out: -log[EC50 (mol/l)] (converted)
# Description: For this, the relaxing action on a guinea pig trachea which has been contracted beforehand with a suitable dose of methacholine is measured for the compounds to be investigated. The trachea of male guinea pigs (200-300 g) is removed and divided into individual segments and each segment is suspended in an organ bath with 118.5 mM NaCl, 4.7 mM KCl, 1.2 mM MgSO4, 2.5 mM CaCl2, 1.2 mM KH2 PO4, 25 mM NaHCO3 and 10 mM glucose at 37° C. Oxygen to which 5% of CO2 has been added is passed permanently through the solution. After stabilization, the trachea is contracted with a suitable dose of methacholine. Thereafter, a dose/effect curve is plotted with the test substances in a cumulative manner. The concentration (mol/l) which corresponds to 50% of the maximum effect (EC50) is then determined from this curve. This EC50 is thus a measure of the activity of the compounds according to the invention.
# The serial number in the table agrees with the number of the compounds in the examples. The number n indicates the number of investigations.
row,Structure (SMILES),EC50
1,"Nc1c(Cl)cc(C(O)CNCCOCCOC(=O)Cc2ccccc2)cc1Cl (stereo not shown) [Compound 106, {2-[2-[2-(4-Amino-3,5-dichlorophenyl)-2-hydroxyethylamino]ethoxy]ethyl}phenylacetate-fumarate]",7.94 nM

# Same assay, conditions: Cavia porcellus; in vitro relaxation of methacholine-contracted guinea pig trachea segments, cumulative dose/effect curve, 37° C., n = 3 to 6; read-out: -log[EC50 (mol/l)] (converted)
row,Structure (SMILES),EC50
1,"N#Cc1cc(C(O)CNCCCCCC(=O)OCCc2ccccc2)cc(Cl)c1N (stereo not shown) [Compound 74, 2-Phenylethyl 6-[2-(4-amino-5-chloro-3-cyanophenyl)-2-hydroxyethylamino]hexanoate-hemifumarate]",3.98 nM
2,"Nc1c(Cl)cc(C(O)CNCCCCCC(=O)OCCc2c[nH]c3ccccc23)cc1Cl (stereo not shown) [Compound 103, 2-(3-Indolyl)ethyl 6-[2-(4-amino-3,5-dichlorophenyl)-2-hydroxyethylamino]hexanoate-hemifumarate]",3.16 nM
3,"O=C(CCCCCNCC(O)c1ccc(O)c(CO)c1)OCCCCc1ccccc1 (stereo not shown) [Compound 64, 4-Phenylbutyl 6-[2-hydroxy-2-(4-hydroxy-3-hydroxymethylphenyl)ethylamino]hexanoate-oxalate]",10 nM
4,"Nc1c(Cl)cc(C(O)CNCCCCCCOC(=O)Cc2cccc3ccccc23)cc1Cl (stereo not shown) [Compound 34, {6-[2-(4-Amino-3,5-dichlorophenyl)-2-hydroxyethylamino]-1-hexyl}1-naphthylacetate-maleate]",3.16 nM
5,"Nc1ccc(C(O)CNCCCCCCOC(=O)Cc2ccccc2Cl)c(Cl)c1Cl (stereo not shown) [Compound 82, {6-[2-(4-Amino-2,3-dichlorophenyl)-2-hydroxyethylamino]-1-hexyl}2-chlorophenylacetate-hemifumarate]",10 nM
6,"Nc1c(Cl)cc(C(O)CNCCCCCC(=O)OCCc2cccc3ccccc23)cc1Cl (stereo not shown) [Compound 19, 2-(1-Naphthyl)ethyl 6-[2-(4-amino-3,5-dichlorophenyl)-2-hydroxyethylamino]hexanoate]",6.31 nM
7,"Nc1c(Cl)cc(C(O)CNCCCCCC(=O)OCCc2ccccn2)cc1Cl (stereo not shown) [Compound 32, 2-(2-Pyridyl)ethyl6-[2-(4-amino-3,5-dichlorophenyl)-2-hydroxyethylamino]hexanoate-hemifumarate]",15.8 nM
8,"Nc1c(Cl)cc(C(O)CNCCCCCCOC(=O)CCc2ccc(O)cc2)cc1Cl (stereo not shown) [Compound 17, {6-[2-(4-Amino-3,5-dichlorophenyl)-2-hydroxyethylamino]-1-hexyl}[3-(4-hydroxyphenyl)]propionate-hydrochloride]",20 nM
9,"Nc1c(Cl)cc(C(O)CNCCCCCC(=O)OCCc2ccc(O)cc2)cc1Cl (stereo not shown) [Compound 37, 2-(4-Hydroxyphenyl)ethyl 6-[2-(4-amino-3,5-dichlorophenyl)-2-hydroxyethylamino]hexanoate]",2 nM
